Among the data in patent US6881741B2 (ViroChem Pharma Inc., priority 2001, dated 2005) are IC50 values, retold here.

Like-named read-outs stand apart in the source and are kept apart here.

For this assay, the target named is recombinant HCV NS5B (HCV RNA-dependent RNA polymerase) (Hepatitis C virus genotype 1b, UniProt P26663). Description: biochemical.
The mark [1] stands for this setting: related polymerase activity (Example 27 list), read-out: IC50.
[2] abbreviates: HCV polymerase activity, list of compounds of Example 27, read-out: IC50 (polymerase activity).

Sequence of recombinant HCV NS5B (HCV RNA-dependent RNA polymerase) (P26663 2420-3010 limits assumed): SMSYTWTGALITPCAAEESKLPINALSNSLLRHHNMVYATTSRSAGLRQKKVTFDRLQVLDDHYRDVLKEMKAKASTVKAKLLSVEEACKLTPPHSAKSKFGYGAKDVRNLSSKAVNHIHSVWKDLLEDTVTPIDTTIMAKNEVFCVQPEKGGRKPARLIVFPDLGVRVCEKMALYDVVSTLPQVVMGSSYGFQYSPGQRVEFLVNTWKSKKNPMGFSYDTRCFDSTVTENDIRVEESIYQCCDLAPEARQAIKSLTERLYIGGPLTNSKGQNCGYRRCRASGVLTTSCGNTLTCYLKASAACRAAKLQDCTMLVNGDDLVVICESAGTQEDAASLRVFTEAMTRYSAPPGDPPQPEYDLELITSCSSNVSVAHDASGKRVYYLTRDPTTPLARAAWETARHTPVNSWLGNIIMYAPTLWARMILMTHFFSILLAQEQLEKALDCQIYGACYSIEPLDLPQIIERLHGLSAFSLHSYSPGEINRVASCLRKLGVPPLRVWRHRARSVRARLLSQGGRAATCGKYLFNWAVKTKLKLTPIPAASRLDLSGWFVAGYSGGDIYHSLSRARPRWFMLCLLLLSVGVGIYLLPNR

What is called IC50 is the midpoint of a concentration-inhibition curve. Regarding `CC(=O)c1ccc(-c2cc(NS(=O)(=O)c3ccc(C)cc3C)c(C(=O)O)s2)cc1` [Compound 236, 5-(4-ACETYL-PHENYL)-3-(2,4-DIMETHYL-BENZENESULFONYLAMINO)-THIOPHENE-2-CARBOXYLIC ACID], the concentration for half-maximal inhibition (IC50) under setting [1] is below 5 µM.
The same measure, in the same setting: for `Cc1noc(C)c1S(=O)(=O)Nc1cc(-c2ccccc2)sc1C(=O)O` [Compound 94, 3-(3,5-DIMETHYL-ISOXAZOLE-4-SULFONYLAMINO)-5-PHENYL-THIOPHENE-2-CARBOXYLIC ACID] the value was 5 to 20 µM.
For the molecule `O=C(O)c1sc(-c2ccccc2)cc1N(CC1CCNCC1)C(=O)c1ccc(Cl)cc1Cl` [Compound 519, 3-[(2,4-DICHLORO-BENZOYL)-PIPERIDIN- 4-YLMETHYL-AMINO]-5-PHENYL- THIOPHENE-2-CARBOXYLIC ACID], under setting [2], the IC50 is below 5 µM.
Take `Cc1ccccc1S(=O)(=O)Nc1cc(-c2ccccc2)sc1C(=O)O` [Compound 62, 5-PHENYL-3-(TOLUENE-2-SULFONYLAMINO)-THIOPHENE-2-CARBOXYLIC ACID]: the half-inhibitory concentration (IC50) under setting [1] was below 5 µM.
As for `O=C(O)c1sc(-c2ccccc2)cc1NS(=O)(=O)c1ccccc1[N+](=O)[O-]` [Compound 45, 3-(2-NITRO-BENZENESULFONYLAMINO)-5-PHENYL-THIOPHENE-2-CARBOXYLIC ACID], under setting [1], the 50% inhibitory concentration (IC50) is below 5 µM.
For `CC(C)N(C(=O)c1ccc(Cl)cc1Cl)c1cc(-c2cccc(C(F)(F)F)c2)sc1C(=O)O` [Compound 359, 3-[(2,4-DICHLORO-BENZOYL)- ISOPROPYL-AMINO]-5-(3- TRIFLUOROMETHYL-PHENYL)- THIOPHENE-2-CARBOXYLIC ACID], under setting [1], the concentration for half-maximal inhibition (IC50) is below 5 µM.
The same measure, in the same setting: for `Cc1cc(S(=O)(=O)N(C)c2cc(-c3ccccc3)sc2C(=O)O)c(C)cc1Cl` [Compound 5, 3-[(4-CHLORO-2,5-DIMETHYL-BENZENESULFONYL)-METHYL-AMINO]-5-PHENYL-THIOPHENE-2-CARBOXYLIC ACID] the value was 5 to 20 µM; for `COc1cccc(-c2cc(NS(=O)(=O)c3ccccc3C)c(C(=O)O)s2)c1` [Compound 123, 5-(3-METHOXY-PHENYL)-3-(TOLUENE-2-SULFONYLAMINO)-THIOPHENE-2-CARBOXYLIC ACID], below 5 µM.
For the molecule `CC(C)(C)c1ccc(CN(C(=O)C2CCCCC2)c2cc(-c3ccccc3)sc2C(=O)O)cc1` [Compound 441, 3-[(4-TERT-BUTYL-BENZYL)- CYCLOHEXANECARBONYL-AMINO]-5- PHENYL-THIOPHENE-2-CARBOXYLIC ACID], the IC50 under setting [2] is below 5 µM.
With `O=C(Nc1cc(Cl)nc(Cl)c1)Nc1cc(-c2ccccc2)sc1C(=O)O` [Compound 28, 3-[3-(2,6-DICHLORO-PYRIDIN-4-YL)-UREIDO]-5-PHENYL-THIOPHENE-2-CARBOXYLIC ACID], the IC50 under setting [1] was below 5 µM.
The same measure, in the same setting: for `Cc1ccccc1S(=O)(=O)Nc1cc(-c2cnn(S(=O)(=O)N(C)C)c2)sc1C(=O)O` [Compound 163, 5-(1-DIMETHYLSULFAMOYL-1H-PYRAZOL-4-YL)-3-(TOLUENE-2-SULFONYLAMINO)-THIOPHENE-2-CARBOXYLIC ACID] the value was 5 to 20 µM; for `O=C(O)c1sc(-c2ccccc2)cc1NS(=O)(=O)c1ccccc1F` [Compound 30, 3-(2-FLUORO-BENZENESULFONYLAMINO)-5-PHENYL-THIOPHENE-2-CARBOXYLIC ACID], 5 to 20 µM; for `Cc1ccc(C(=O)N(C)c2cc(-c3ccccc3)sc2C(=O)O)cc1` [Compound 93, 3-[METHYL-(4-METHYL-BENZOYL)-AMINO]-5-PHENYL-THIOPHENE-2-CARBOXYLIC ACID], below 5 µM.
Still for that read-out and setting: for `O=C(O)c1sc(-c2ccccc2)cc1NS(=O)(=O)c1ccc(F)cc1F` [Compound 27, 3-(2,4-DIFLUORO-BENZENESULFONYLAMINO)-5-PHENYL-THIOPHENE-2-CARBOXYLIC ACID] the value was below 5 µM; for `Cc1ccccc1S(=O)(=O)Nc1cc(-c2ccc3c(c2)OCO3)sc1C(=O)O` [Compound 202, 5-BENZO[1,3]DIOXOL-5-YL-3-(TOLUENE-2-SULFONYLAMINO)-THIOPHENE-2-CARBOXYLIC ACID], below 5 µM.
In the case of `CC1=CCC(C(=O)N(c2cc(-c3ccccc3)sc2C(=O)O)C(C)C)C1` (centres unmarked) [Compound 405, 3-[ISOPROPYL-(3-METHYL-CYCLOPENT- 3-ENECARBONYL)-AMINO]-5-PHENYL- THIOPHENE-2-CARBOXYLIC ACID], under setting [2], the IC50 was below 5 µM.
On to `CC(C)N(C(=O)c1ccc(Cl)cc1)c1cc(-c2ccccc2)sc1C(=O)O` [Compound 210, 3-[(4-CHLORO-BENZOYL)-ISOPROPYL-AMINO]-5-PHENYL-THIOPHENE-2-CARBOXYLIC ACID], for which the IC50 under setting [1] is below 5 µM.
Same read-out and setting: under `Cc1ccccc1S(=O)(=O)Nc1cc(-c2ccncc2)sc1C(=O)O` [Compound 86, 5-PYRIDIN-4-YL-3-(TOLUENE-2-SULFONYLAMINO)-THIOPHENE-2-CARBOXYLIC ACID] stands below 5 µM.
On the same count and under the same terms, under `CN(C(=O)c1ccc(C(C)(C)C)cc1)c1cc(-c2ccccc2)sc1C(=O)O` [Compound 247, 3-[(4-TERT-BUTYL-BENZOYL)-METHYL-AMINO]-5-PHENYL-THIOPHENE-2-CARBOXYLIC ACID] stands 5 to 20 µM.
On to `Cc1cccc(CN(C(=O)C2CC2)c2cc(-c3ccccc3)sc2C(=O)O)c1` [Compound 466, 3-[CYCLOPROPANECARBONYL-(3- METHYL-BENZYL)-AMINO]-5-PHENYL- THIOPHENE-2-CARBOXYLIC ACID], for which the IC50 under setting [2] was in the range of 5 to 20 µM.
`O=C(O)c1sc(-c2ccccc2)cc1N(C(=O)c1ccc(Cl)cc1Cl)C1CC[C@@H](C(=O)O)C1` (stereo in doubt) [Compound 547, 3-[(3-CARBOXY-CYCLOPENTYL)-(2,4- DICHLORO-BENZOYL)-AMINO]-5- PHENYL-THIOPHENE-2-CARBOXYLIC ACID]: the half-inhibitory concentration (IC50) under setting [2] is below 5 µM.
Still for that read-out and setting: for `CC(C)C(=O)N(Cc1ccc(C(F)(F)F)cc1)c1cc(-c2ccccc2)sc1C(=O)O` [Compound 411, 3-[ISOBUTYRYL-(4-TRIFLUOROMETHYL- BENZYL)-AMINO]-5-PHENYL-THIOPHENE- 2-CARBOXYLIC ACID] the value was 5 to 20 µM; for `CC(=O)N(Cc1ccccc1)c1cc(-c2ccccc2)sc1C(=O)O` [Compound 450, 3-(ACETYL-BENZYL-AMINO)-5-PHENYL- THIOPHENE-2-CARBOXYLIC ACID], below 5 µM.
As for `Cc1c(-c2ccccc2)sc(C(=O)O)c1N(C(=O)c1ccc(Cl)cc1Cl)C(C)C` [Compound 314, 3-[(2,4-DICHLORO-BENZOYL)- ISOPROPYL-AMINO]-4-METHYL-5- PHENYL-THIOPHENE-2-CARBOXYLIC ACID], under setting [1], the IC50 was in the range of 5 to 20 µM.
Same read-out and setting: for `CCCCC(=O)N(C)c1cc(-c2ccccc2)sc1C(=O)O` [Compound 389, 3-(METHYL-PENTANOYL-AMINO)-5- PHENYL-THIOPHENE-2-CARBOXYLIC ACID] the value was below 5 µM.
For the molecule `O=C(O)c1sc(-c2ccc([N+](=O)[O-])cc2)cc1NS(=O)(=O)c1ccccn1` [Compound 129, 5-(4-NITRO-PHENYL)-3-(PYRIDINE-2-SULFONYLAMINO)-THIOPHENE-2-CARBOXYLIC ACID], under setting [1], the IC50 lay in the range of 5 to 20 µM.
As to `Cc1ccc(CN(C(=O)C2CC2)c2cc(-c3ccccc3)sc2C(=O)O)cc1` [Compound 469, 3-[CYCLOPROPANECARBONYL-(4- METHYL-BENZYL)-AMINO]-5-PHENYL- THIOPHENE-2-CARBOXYLIC ACID], the IC50 under setting [2] was in the range of 5 to 20 µM.
On to `COc1ccc(N2CCN(C(=O)Nc3cc(-c4ccccc4)sc3C(=O)O)CC2)cc1` [Compound 181, 3-{[4-(4-METHOXY-PHENYL)-PIPERAZINE-1-CARBONYL]-AMINO}-5-PHENYL-THIOPHENE-2-CARBOXYLIC ACID], for which, under setting [1], the IC50 was in the range of 5 to 20 µM.
Same read-out and setting: for `O=C(O)c1sc(-c2ccccc2)cc1N(Cc1ccc(-c2cc3ccccc3o2)s1)C(=O)c1ccc(Cl)cc1Cl` [Compound 12, 3-[(5-BENZOFURAN-2-YL-THIOPHEN-2-YLMETHYL)-(2,4-DICHLORO-BENZOYL)-AMINO]-5-PHENYL-THIOPHENE-2-CARBOXYLIC ACID] the value was 5 to 20 µM; for `Cc1ccccc1S(=O)(=O)Nc1cc(-c2nccs2)sc1C(=O)O` [Compound 178, 5-THIAZOL-2-YL-3-(TOLUENE-2-SULFONYLAMINO)-THIOPHENE-2-CARBOXYLIC ACID], below 5 µM; for `COC(=O)c1sc(-c2ccccc2)cc1N(C(=O)c1ccc(Cl)cc1Cl)C(C)C` [Compound 287, 3-[(2,4-DICHLORO-BENZOYL)-ISOPROPYL-AMINO]-5-PHENYL-THIOPHENE-2-CARBOXYLIC ACID METHYL ESTER], 5 to 20 µM.
Still for that read-out and setting: for `Cc1ccccc1S(=O)(=O)Nc1cc(-c2cn[nH]c2)sc1C(=O)O` [Compound 170, 5-(1H-PYRAZOL-4-YL)-3-(TOLUENE-2-SULFONYLAMINO)-THIOPHENE-2-CARBOXYLIC ACID] the value was below 5 µM.
Still for that read-out and setting: for `O=C(O)c1sc(-c2ccc(F)cc2)cc1NS(=O)(=O)c1ccccn1` [Compound 133, 5-(4-FLUORO-PHENYL)-3-(PYRIDINE-2-SULFONYLAMINO)-THIOPHENE-2-CARBOXYLIC ACID] the value was below 5 µM; for `Cc1ccc(C(=O)N(C)c2cc(-c3cccc(C)c3)sc2C(=O)O)cc1` [Compound 268, 3-[METHYL-(4-METHYL-BENZOYL)-AMINO]-5-M-TOLYL-THIOPHENE-2-CARBOXYLIC ACID], below 5 µM.
In the case of `CC(C1CCN(C(=O)OCc2ccccc2)CC1)N(C(=O)c1ccc(Cl)cc1Cl)c1cc(-c2ccccc2)sc1C(=O)O` (centres unmarked) [Compound 523, 4-{1-[(2-CARBOXY-5-PHENYL-THIOPHEN- 3-YL)-(2,4-DICHLORO-BENZOYL)-AMINO]- ETHYL}-PIPERIDINE-1-CARBOXYLIC ACID BENZYL ESTER], the half-inhibitory concentration (IC50) under setting [2] is 5 to 20 µM.
`O=C(O)c1sc(-c2ccccc2)cc1N(C(=O)c1ccc(Cl)cc1Cl)C1CCN(C(=O)c2ccc(Cl)cc2Cl)CC1` [Compound 363, 3-[(2,4-DICHLORO-BENZOYL)-[1-(2,4- DICHLORO-BENZOYL)-PIPERIDIN-4-YL]- AMINO)-5-PHENYL-THIOPHENE-2- CARBOXYLIC ACID]: the half-maximal inhibitory concentration (IC50) under setting [1] was below 5 µM.
Take `Cc1ccccc1C(=O)Nc1cc(-c2ccccc2)sc1C(=O)O` [Compound 96, 3-(2-METHYL-BENZOYLAMINO)-5-PHENYL-THIOPHENE-2-CARBOXYLIC ACID]: the 50% inhibitory concentration (IC50) under setting [1] lay within 5 to 20 µM.
On the same count and under the same terms, for `CC(=O)Oc1cc(C)ccc1C(=O)N(c1cc(-c2ccccc2)sc1C(=O)O)C(C)C` [Compound 377, 3-[(2-ACETOXY-4-METHYL-BENZOYL)- ISOPROPYL-AMINO]-5-PHENYL- THIOPHENE-2-CARBOXYLIC ACID] the value was 5 to 20 µM.
